The record followed here is the RepoRT retention time repository.

This data set in a line: Waters ACQUITY UPLC HSS T3, 0.4 mL/min; A: water + 0.1% formic acid; B: acetonitrile + 0.1% formic acid; gradient (min/%B) 0/5 1.5/5 12/95 14/95 14.01/100 17/100. The note with it: stereoisomer not certain.
Take `CCCCCC(O)C=CC1OC(O)CC(O)C1CC=CCC(=O)O` (stereo not given): the LC retention time worked out at 8.51 min.
Under `CCCCCC(O)C=CC1=CCC(=O)C1CC=CCCCC(=O)O` (stereo not given) stands 4.99 min.
Under `CCCCC(CC)CS` (stereo not given) stands 0.766 min.
Under `CC(=O)C1CCC2C3CC=C4CC(O)CCC4(C)C3CCC12C` (stereo not given) stands 11.8 min.
`CC1(C)OC2(CO)CCC1CC2OC1OC(CO)C(O)C(O)C1O` (stereo not given): the LC retention time was 3.99 min.
Under `C=Cc1c2[nH]c(c1C)Cc1[nH]c(c(CCC(=O)O)c1C)Cc1[nH]c(c(C)c1CCC(=O)O)Cc1[nH]c(c(C)c1C=C)C2` stands 4.78 min; under `NCCS(=O)(=O)O`, 0.777 min.
The result for `CC(=CC(O)C1OC1(C)C)C1CCC2(C)C1C(O)CC1C3(C)CCC(O)C(C)(C)C3C(OC3OC(CO)C(O)C(O)C3O)CC12C` (stereo not given) reads 9.9 min.
The result for `COc1cc2c(cc1OC)CN(C)CC2` reads 4.98 min; that for `CCC=CCC=CCC(O)C=CC=CC=CC(O)CCCC(=O)O` (stereo not given), 4.99 min.
Regarding `CCC(C)C(=O)OC(CC(=O)[O-])C[N+](C)(C)C` (stereo not given), the LC retention time came out at 4.04 min.
On to `C=C(CCC)C(N)C(=O)O` (stereo not given), for which the LC retention time was 0.818 min.
The result for `CC1CCC2(NC1)OC1CC3C4CC=C5CC(OC6OC(CO)C(OC7OC(C)C(O)C(O)C7O)C(O)C6O)CCC5(C)C4CCC3(C)C1C2C` (stereo not given) reads 9.86 min; that for `C[N+](C)(C)CCOP(=O)([O-])OCC(O)CO` (stereo not given), 0.761 min.
The result for `CCCCCC(=O)CCOC1OC(CO)C(O)C(O)C1O` (stereo not given) reads 4.89 min; that for `Nc1ccnc(=O)[nH]1`, 1.02 min.
Regarding `Cc1cc(O)c2c(c1O)C(=O)C1=C(C2=O)C(=O)C2C(O)C1C1C(O)CC(=O)C3=C(O)c4c(O)cc(C)c(O)c4C(=O)C321` (stereo not given), the LC retention time worked out at 1.11 min.
Under `C=C(C)C1CCC(C)(O)C1CC1=C(O)C(=C(O)c2ccccc2)C(=O)C(CC=C(C)C)(CC=C(C)C)C1=O` (stereo not given) stands 8.61 min; under `O=C(Oc1cc(O)cc(O)c1C(=O)O)c1ccc(O)c(O)c1`, 1.15 min.
Under `COC(=O)C12CCC(C)(C)CC1C1=CCC3C4(C)CCC(OC(=O)C=Cc5ccc(OC)cc5)C(C)(C)C4CCC3(C)C1(C)CC2` (stereo not given) stands 13.1 min; under `O=C(O)CC1CCC(=O)C1CC=CCCOC1OC(CO)C(O)C(O)C1O` (stereo not given), 0.755 min.
On to `COC(=O)C1(OC(C)=O)CC23CCC4C(C)(O)CCCC4(C)C2CCC1C3` (stereo not given), for which the LC retention time worked out at 5.17 min.
The result for `CC(C)=CCCC(C)(O)C1CCC2(C)C1C(O)CC1C3(C)CCC(OC4OC(CO)C(O)C(O)C4OC4OC(CO)C(O)C(O)C4O)C(C)(C)C3CCC12C` (stereo not given) reads 9.82 min; that for `CCC(C)C(C(=O)NC(C(=O)NC1C(=O)NC(Cc2c[nH]c3ccccc23)C(=O)NCC(=O)c2ccc(cc2)OC1(C)C)C(C)C)N(C)C` (stereo not given), 5.47 min.
Under `CC(=O)NC(CC(C)C)C(=O)NC(CC(C)C)C(=O)NC(C=O)CCCN=C(N)N` (stereo not given) stands 12.2 min; under `CNC(C)(C)C(=O)O`, 1.02 min.
The result for `CC1CCC(C(C)(O)COC2OC(CO)C(O)C(O)C2O)CC1O` (stereo not given) reads 5.08 min; that for `NCC1CCC(C(=O)O)CC1` (stereo not given), 0.828 min; that for `NC(CCC(=O)O)C(=O)O` (stereo not given), 0.786 min.
For `CCCCCCCCCCCCCCCCCC(=O)OCC(O)COP(=O)(O)OCC(O)CO` (stereo not given), the LC retention time came out at 5.64 min.
For `CC(NC(=O)C(N)CC(=O)O)NC(=O)N(C)C(C)(C)C` (stereo not given), the LC retention time stood at 0.829 min.
Under `CCCCCC=CCC=CCCCCCCCC(=O)OC(COC(=O)CCCCCCCC=CCCCCCC)COP(=O)(O)OCC(O)CO` (stereo not given) stands 13.9 min; under `Nc1[nH]c(=O)nc2c1ncn2C1CC(O)C(COP(=O)(O)O)O1` (stereo not given), 0.934 min; under `CCCC(=O)OCCC(S)CCC` (stereo not given), 0.838 min.
The result for `CC(C=CCC1C(=O)CCC1CC(=O)O)OC1OC(CO)C(O)C(O)C1O` (stereo not given) reads 0.755 min; that for `CC(C)C(N)C(=O)O` (stereo not given), 1.02 min.
Under `CCCCCON=O` stands 1.02 min.
For `CC(N)C(=O)O` (stereo not given), the LC retention time came out at 0.806 min.
Under `CC1(COC(=O)c2ccccc2)CCC2(C)CCC3(C)C4=CCC5C(C)(CCC(OC(=O)c6ccc(N)cc6)C5(C)C)C4=CCC3(C)C2C1` (stereo not given) stands 10.9 min; under `CN1CC(c2ccc(O)cc2)OC1(C)C` (stereo not given), 4.98 min; under `CC1=C2C(CC3(C)OC3CCC3(C)OC3C2O)OC1=O` (stereo not given), 6.31 min.
Turning to `CC1=CC(O)CC(C)(C)C1(O)C=CC(C)OC1OC(COC2OCC(O)(CO)C2O)C(O)C(O)C1O` (stereo not given), the LC retention time came out at 4.44 min.
Under `CCC=CCC=CCC=CCC=CCC=CCC=CCCC(=O)OC(CO)COP(=O)(O)OCCN` (stereo not given) stands 4.65 min; under `CC(C)=CC1c2[nH]c3ccccc3c2CC2C(=O)N3CCCC3C(=O)N21` (stereo not given), 3.99 min.
On to `CC(C)C1=CC2(O)CCC3C(C)(C(=O)O)CCCC3(C)C2CC1=O` (stereo not given), for which the LC retention time was determined as 4.99 min.
The result for `CC(=O)OCCC(N)C(=O)O` (stereo not given) reads 0.912 min; that for `CN1C2CCC1(O)C(O)C(O)C2O` (stereo not given), 1.05 min; that for `CC(C)N`, 0.706 min.
Under `CC(=O)OCC(N)C(=O)O` (stereo not given) stands 0.786 min.
Consider `CCC=CCC(O)C=CC=CC=CC=CC(O)C(O)CC=CCCC(=O)O` (stereo not given), for which the LC retention time was found to be 5.01 min.
The result for `Nc1ncnc2c1ncn2C1OC(COP(=O)(O)O)C(O)C1O` (stereo not given) reads 0.934 min; that for `CCCCCCC=CCCCCCCCC(=O)OCC(O)COP(=O)(O)OCCN` (stereo not given), 4.91 min.
The result for `CCCCCCCCCCCCCCCC(=O)OCC(COP(=O)([O-])OCC[N+](C)(C)C)OC(=O)CCCC(O)C=CC=O` (stereo not given) reads 5.43 min; that for `Nc1cncn1C1OC(COP(=O)(O)O)C(O)C1O` (stereo not given), 0.711 min.
Under `CC1CCC2(C(=O)O)CCC3(C)C(=CC(=O)C4C5(C)CCC(OC(=O)c6ccccc6)C(C)(C)C5CCC43C)C2C1C` (stereo not given) stands 11 min.
As for `CNC(CC(=O)O)C(=O)O` (stereo not given), the LC retention time worked out at 0.786 min.
Under `CCCCCCC=CCCCCCCCC(=O)OCC(COP(=O)(O)OCC(O)CO)OC(=O)CCCCCCCC=CCCCCCC` (stereo not given) stands 13 min.
The result for `C=C1CCC2C(OC(=O)C2(O)CO)C2C(C)C(=O)CC12` (stereo not given) reads 6.31 min.
For the molecule `C=CC1(CO)CCC(C(C)(C)OC2OC(CO)C(O)C(O)C2O)O1` (stereo not given), the LC retention time stood at 3.99 min.
Consider `CC=CC=CC=CC1=NCCCC1`, for which the LC retention time is 9.09 min.
`C=C1C(=O)OC2C1CC=C1CC(C)(CCC1OO)C2O` (stereo not given): the LC retention time was 6.31 min.
Under `CCC=CCC=CCC=CCCCCCCCC(=O)OC(COC(=O)CCCCCCCCCCCCCCC)COP(=O)(O)OCC(O)CO` (stereo not given) stands 13.9 min; under `CC1CCC2(C(=O)O)CCC3(C)C(=CCC4C5(C)CCC(OC(=O)c6ccccc6)C(C)(C)C5C(=O)CC43C)C2C1C` (stereo not given), 11 min.
The result for `CC(C)=CCCC(C)(O)C1CCC2(C)C1C(O)CC1C3(C)CCC(OC4OC(COC5OCC(O)C(O)C5O)C(O)C(O)C4O)C(C)(C)C3CCC12C` (stereo not given) reads 10.8 min; that for `COc1ccc(COC2OC(CO)C(O)C(O)C2OS(=O)(=O)O)cc1` (stereo not given), 0.842 min.
